Laboratory results reported in US20230000753A1, “Encapsulated Cleansing Composition” (Henkel AG & Co. KGaA, priority 2020, published 2023).

Tested on: skin
Assay: 5 day cumulative irritation patch study
Format: in vivo
Procedure: To evaluate the skin irritation potential of cleansing products, a 5 day cumulative irritation patch study was conducted. Cumulative irritancy patch testing is a modified primary irritancy patch test that can detect weak irritants that require multiple applications to cause a skin reaction. These reactions are due to direct damage to the epidermal cells and no immunologic (allergic) mechanism is involved. The procedure used in the Examples is a modification of that described by Dr. B. M. Lanman at the Joint Conference on Cosmetic Sciences, Apr.

CCCCCCCCCCCCOS(=O)(=O)[O-].[Na+] [0.25% SLS, sodium lauryl sulfate]
Irritancy Class: Moderately
Normalized Total Score: 290.2
